Key:
Type in all cases: in vivo
[1] = test system: adult mosquitoes Aedes aegypti strain MONHEIM; experiment: Aedes aegypti test (AEDSAE surface treatment & contact assay); conditions: 24 hours after contact, read-out: efficacy (mortality)
How it was run: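 Compound in acetone (2 mg/ml) with 2000 ppm rapeseed oil methyl ester applied to glazed tile and dried; adult Aedes aegypti MONHEIM exposed on surface for 30 min. Percent mortality scored 24 h after contact.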

[2] = test system: fall armyworm larvae (Spodoptera frugiperda); experiment: Spodoptera frugiperda spray test; conditions: in Zea mays, 168 h
How it was run: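 Maize leaf sections were sprayed with compound in acetone/dimethylformamide diluted in water with 1000 ppm emulsifier, dried, then infested with larvae. Mortality in % was scored after 7 days, 100% meaning all caterpillars killed.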

[3] = test system: green peach aphid (Myzus persicae); experiment: Myzus persicae oral test; conditions: 120 h, 4 ppm, after 5 days
Description: • Solvent: 100 parts by weight acetone
To produce a suitable preparation of active compound, 1 part by weight of active compound is mixed with the stated amount of solvent, and the concentrate is diluted with water to the desired concentration.
50 μL compound solution is filled in microtiter plates and 150 μL IPL41 insect medium (33%+15% sugar) is added to obtain a total volume of 200 μL per well. Afterwards the plates are sealed with parafilm through which a mixed population of the green peach aphid (Myzus persicae) can suck on the compound preparation.
After 5 days mortality in % is determined. 100% means all aphids have been killed and 0% means none of the aphids have been killed.

[4] = test system: adult flies Musca domestica strain WHO-N; experiment: Musca domestica test (MUSCDO surface treatment & contact assay); conditions: surface concentration 4 mg/m^2, 30 minutes exposure, 24 hours after contact, read-out: efficacy (mortality)
How it was run: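 Compound dissolved in acetone (2 mg/ml) with 2000 ppm rapeseed oil methyl ester and dried onto glazed tiles. Adult WHO-N strain flies were held on the treated surface for 30 minutes, with % mortality scored 24 hours after contact.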

`C[C@H](NC(=O)c1cc(Cl)cc(OS(C)(=O)=O)c1)c1ncnn1-c1ccc(C#N)cn1` [Example I-46] showed a mortality at 4 mg/m2 ([1]; surface concentration 4 mg/m^2, 30 minutes exposure) of 80 to 100%, a mortality at 20 mg/m2 ([1]; surface concentration 20 mg/m^2, 30 minutes exposure) of 80 to 100% and a mortality at 100 g/ha [2] of 100%. It also gave a mortality at 4 ppm [3] of 100% and a mortality at 4 mg/m2 [4] of 80 to 100%.
